Assay results from article PMC8696196 (RSC Advances, 2021).
Read-outs that look alike come from different tables or passages of the source.

Columns and labels:
[1] = molecular target: N5 (H12N5) neuraminidase (Influenza A virus, UniProt A1ILL9); test: biochemical
[2] = molecular target: N2 (H3N2) neuraminidase (Influenza A virus, UniProt Q8AZ87); test: biochemical
[3] = tested on: H1N1 (A/Puerto Rico/8/34); test: microbe, parasite or virus in culture; assay type: cell-based, influenza A virus; settings: read-out: EC50 H1N1
[4] = tested on: H3N2 (A/Moscow/10/99); test: microbe, parasite or virus in culture; assay type: cell-based, influenza A virus; settings: read-out: EC50 H3N2
[5] = in vitro; settings: dog

| SMILES | IC50 [1] [µM] | further results |
| --- | --- | --- |
| CCC(CC)O[C@@H]1C=C(C(=O)O)C[C@H](n2cc(-c3cccc(N)c3)nn2)[C@H]1NC(C)=O [Compound 1j, (3R,4R,5S)-4-Acetamido-5-[4-(3-aminophenyl)-1H-1,2,3-triazol-1-yl]-3-(pentan-3-yloxy)cyclohex-1-ene-1-carboxylic acid] | 3.6 ± 0.82 | – |
| CCC(CC)O[C@@H]1C=C(C(=O)O)C[C@H](n2nncc2-c2cccc(C(=O)O)c2)[C@H]1NC(C)=O [Compound 2g, (3R,4R,5S)-4-Acetamido-5-[5-(3-carboxyphenyl)-1H-1,2,3-triazol-1-yl]-3-(pentan-3-yloxy)cyclohex-1-ene-1-carboxylic acid] | 2.04 ± 0.99 | – |
| CCC(CC)O[C@@H]1C=C(C(=O)O)C[C@H](n2nncc2-c2ccc(N)cc2)[C@H]1NC(C)=O [Compound 2i, (3R,4R,5S)-4-Acetamido-5-[5-(4-aminophenyl)-1H-1,2,3-triazol-1-yl]-3-(pentan-3-yloxy)cyclohex-1-ene-1-carboxylic acid] | 0.25 ± 0.044 | – |
| CCC(CC)O[C@@H]1C=C(C(=O)O)C[C@H](n2cc(-c3ccc(N)cc3)nn2)[C@H]1NC(C)=O [Compound 1i, (3R,4R,5S)-4-Acetamido-5-[4-(4-aminophenyl)-1H-1,2,3-triazol-1-yl]-3-(pentan-3-yloxy)cyclohex-1-ene-1-carboxylic acid] | > 100 | – |
| CCC(CC)O[C@@H]1C=C(C(=O)O)C[C@H](n2cc(-c3ccc(-c4ccccc4)cc3)nn2)[C@H]1NC(C)=O [Compound 1a, (3R,4R,5S)-4-Acetamido-5-[4-(1,1′-biphenyl-4-yl)-1H-1,2,3-triazol-1-yl]-3-(pentan-3-yloxy)cyclohex-1-ene-1-carboxylic acid] | > 100 | IC50 [2]: > 100 µM |
| CCC(CC)O[C@@H]1C=C(C(=O)O)C[C@H](n2nncc2-c2ccccc2C(=O)O)[C@H]1NC(C)=O [Compound 2h, (3R,4R,5S)-4-Acetamido-5-[5-(2-carboxyphenyl)-1H-1,2,3-triazol-1-yl]-3-(pentan-3-yloxy)cyclohex-1-ene-1-carboxylic acid] | 0.57 ± 0.13 | – |
| CCC(CC)O[C@@H]1C=C(C(=O)O)C[C@H](n2nncc2-c2ccc(N(CC)CC)cc2)[C@H]1NC(C)=O [Compound 2m, (3R,4R,5S)-4-Acetamido-5-[5-(4-diethylaminophenyl)-1H-1,2,3-triazol-1-yl]-3-(pentan-3-yloxy)cyclohex-1-ene-1-carboxylic acid] | > 100 | – |
| CCC(CC)O[C@@H]1C=C(C(=O)O)C[C@H](n2cc(-c3ccccc3)nn2)[C@H]1NC(C)=O [Compound 1e, (3R,4R,5S)-4-Acetamido-3-(pentan-3-yloxy)-5-(4-phenyl-1H-1,2,3-triazol-1-yl)cyclohex-1-ene-1-carboxylic acid] | 12.9 ± 1.57 | – |
| CCC(CC)O[C@@H]1C=C(C(=O)O)C[C@H](n2cc(-c3ccc(C(=O)O)cc3)nn2)[C@H]1NC(C)=O [Compound 1f, (3R,4R,5S)-4-Acetamido-5-[4-(4-carboxyphenyl)-1H-1,2,3-triazol-1-yl]-3-(pentan-3-yloxy)cyclohex-1-ene-1-carboxylic acid] | 8.14 ± 1.12 | – |
| CCC(CC)O[C@@H]1C=C(C(=O)O)C[C@H](n2cc(COc3ccc4ccccc4c3)nn2)[C@H]1NC(C)=O [Compound 1c, (3R,4R,5S)-4-Acetamido-5-[4-(2-naphthyloxy)methyl-1H-1,2,3-triazol-1-yl]-3-(pentan-3-yloxy)cyclohex-1-ene-1-carboxylic acid] | 1.66 ± 0.25 | IC50 [2]: 3.8 ± 0.65 µM |
| CCC(CC)O[C@@H]1C=C(C(=O)O)C[C@H](n2cc(COc3ccc(C[C@H](N)C(=O)O)cc3)nn2)[C@H]1NC(C)=O [Compound 1n, (3R,4R,5S)-4-Acetamido-5-{4-{[4-((S)-2-amino-2-carboxyethyl)phenoxy]methyl}-1H-1,2,3-triazol-1-yl}-3-(pentan-3-yloxy)cyclohex-1-ene-1-carboxylic acid] | 6.95 ± 0.47 | – |
| CCC(CC)O[C@@H]1C=C(C(=O)O)C[C@H](n2nncc2-c2ccccc2)[C@H]1NC(C)=O [Compound 2e, (3R,4R,5S)-4-Acetamido-3-(pentan-3-yloxy)-5-(5-phenyl-1H-1,2,3-triazol-1-yl)cyclohex-1-ene-1-carboxylic acid] | 5.34 ± 0.45 | – |
| CCC(CC)O[C@@H]1C=C(C(=O)O)C[C@H](n2nncc2COc2ccc(C[C@H](N)C(=O)O)cc2)[C@H]1NC(C)=O [Compound 2n, (3R,4R,5S)-4-Acetamido-5-{5-{[4-((S)-2-amino-2-carboxyethyl)phenoxy]methyl}-1H-1,2,3-triazol-1-yl}-3-(pentan-3-yloxy)cyclohex-1-ene-1-carboxylic acid] | 2.43 ± 0.33 | – |
| CCC(CC)O[C@@H]1C=C(C(=O)O)C[C@H](n2cc(-c3ccc(N(CC)CC)cc3)nn2)[C@H]1NC(C)=O [Compound 1m, (3R,4R,5S)-4-Acetamido-5-[4-(4-diethylaminophenyl)-1H-1,2,3-triazol-1-yl]-3-(pentan-3-yloxy)cyclohex-1-ene-1-carboxylic acid] | > 100 | – |
| CCC(CC)O[C@@H]1C=C(C(=O)O)C[C@H](n2nncc2-c2ccc(C(=O)O)cc2)[C@H]1NC(C)=O [Compound 2f, (3R,4R,5S)-4-Acetamido-5-[5-(4-carboxyphenyl)-1H-1,2,3-triazol-1-yl]-3-(pentan-3-yloxy)cyclohex-1-ene-1-carboxylic acid] | 3.92 ± 0.69 | – |
| CCC(CC)O[C@@H]1C=C(C(=O)O)C[C@H](n2cc(-c3ccc(N(C)C)cc3)nn2)[C@H]1NC(C)=O [Compound 1l, (3R,4R,5S)-4-Acetamido-5-[4-(4-dimethylaminophenyl)-1H-1,2,3-triazol-1-yl]-3-(pentan-3-yloxy)cyclohex-1-ene-1-carboxylic acid] | 0.74 ± 0.18 | – |
| CCC(CC)O[C@@H]1C=C(C(=O)O)C[C@H](n2cc(-c3ccc(Oc4ccccc4)cc3)nn2)[C@H]1NC(C)=O [Compound 1b, (3R,4R,5S)-4-Acetamido-3-(pentan-3-yloxy)-5-[4-(4-phenoxyphenyl)-1H-1,2,3-triazol-1-yl]cyclohex-1-ene-1-carboxylic acid] | > 100 | IC50 [2]: > 100 µM |
| CCC(CC)O[C@@H]1C=C(C(=O)O)C[C@H](n2cc(-c3ccc(C)cc3)nn2)[C@H]1NC(C)=O [Compound 1d, (3R,4R,5S)-4-Acetamido-5-[4-(4-methylphenyl)-1H-1,2,3-triazol-1-yl]-3-(pentan-3-yloxy)cyclohex-1-ene-1-carboxylic acid] | 2.85 ± 1.28 | IC50 [2]: 4.41 ± 1.11 µM |
| CCC(CC)O[C@@H]1C=C(C(=O)O)C[C@H](N)[C@H]1NC(C)=O [OSC, oseltamivir carboxylate, reference compound] | 0.00094 ± 0.0003 | EC50 [3]: 0.25 ± 0.081 µM; EC50 [4]: 0.43 ± 0.08 µM; CC50 [5]: > 500 µM |
| CCC(CC)O[C@@H]1C=C(C(=O)O)C[C@H](n2cc(-c3ccccc3N)nn2)[C@H]1NC(C)=O [Compound 1k, (3R,4R,5S)-4-Acetamido-5-[4-(2-aminophenyl)-1H-1,2,3-triazol-1-yl]-3-(pentan-3-yloxy)cyclohex-1-ene-1-carboxylic acid] | 0.52 ± 0.13 | – |
| CCC(CC)O[C@@H]1C=C(C(=O)O)C[C@H](n2cc(-c3cccc(C(=O)O)c3)nn2)[C@H]1NC(C)=O [Compound 1g, (3R,4R,5S)-4-Acetamido-5-[4-(3-carboxyphenyl)-1H-1,2,3-triazol-1-yl]-3-(pentan-3-yloxy)cyclohex-1-ene-1-carboxylic acid] | 29.5 ± 8 | – |
| CCC(CC)O[C@@H]1C=C(C(=O)O)C[C@H](n2nncc2-c2cccc(N)c2)[C@H]1NC(C)=O [Compound 2j, (3R,4R,5S)-4-Acetamido-5-[5-(3-aminophenyl)-1H-1,2,3-triazol-1-yl]-3-(pentan-3-yloxy)cyclohex-1-ene-1-carboxylic acid] | 0.045 ± 0.016 | EC50 ([3]; Influenza A virus, H1N1, MDCK, 72 h): 11.5 ± 2.69 µM; EC50 ([4]; Influenza A virus, H3N2, MDCK, 72 h): 7.65 ± 0.7 µM; CC50 [5]: > 500 µM |
| CCC(CC)O[C@@H]1C=C(C(=O)O)C[C@H](n2cc(-c3ccccc3C(=O)O)nn2)[C@H]1NC(C)=O [Compound 1h, (3R,4R,5S)-4-Acetamido-5-[4-(2-carboxyphenyl)-1H-1,2,3-triazol-1-yl]-3-(pentan-3-yloxy)cyclohex-1-ene-1-carboxylic acid] | 61.2 ± 23.7 | – |
| CCC(CC)O[C@@H]1C=C(C(=O)O)C[C@H](n2nncc2-c2ccc(N(C)C)cc2)[C@H]1NC(C)=O [Compound 2l, (3R,4R,5S)-4-Acetamido-5-[5-(4-dimethylaminophenyl)-1H-1,2,3-triazol-1-yl]-3-(pentan-3-yloxy)cyclohex-1-ene-1-carboxylic acid] | 0.14 ± 0.016 | – |
| CCC(CC)O[C@@H]1C=C(C(=O)O)C[C@H](n2nncc2-c2ccccc2N)[C@H]1NC(C)=O [Compound 2k, (3R,4R,5S)-4-Acetamido-5-[5-(2-aminophenyl)-1H-1,2,3-triazol-1-yl]-3-(pentan-3-yloxy)cyclohex-1-ene-1-carboxylic acid] | 0.41 ± 0.047 | – |
